# Key:
# [1] = Example 3 trial: adverse events; assay type: in vivo, human
# Procedure: Study visits were on Days 0 (when iron was infused), 1 (24 hours after iron infusion), 7, 14, and 35. The primary objectives were to determine the effect of iron deficiency on cFGF23 and iFGF23 levels and the effect of intravenous iron on iFGF23 and cFGF23 levels.
# Randomization occurred centrally via a fax-based system. […] The complete dose was infused over 15 minutes on day 0. […] An initial test dose of 25 mg was administered slowly over 5 minutes.
# Laboratory testing of blood and three-hour urine collections was performed at the screening visit and on study days 0 (when iron was infused), 1 (24 hours after iron infusion), 7, 14, and 35 (see e.g., FIG. 2A). Any subject who experienced a reduction in serum phosphate below the normal range after day 0 underwent additional phosphate measurements at 14 day intervals following day 35 until the level returned to the normal reference range. Safety evaluations of all subjects included ascertainment of adverse events, physical examinations at all study visits, and laboratory assessments. Any subject who withdrew from the study received a follow-up phone call to ascertain adverse events 30 days after they received study drug.
# The pre-specified primary endpoints were changes in blood and urine markers of phosphate and bone metabolism among the evaluable population, defined as those subjects with baseline and at least one post-randomization set of FGF23 and blood and urinary phosphate levels. Secondary endpoints included the proportion of subjects achieving a hemoglobin increase […] anytime between baseline and day 35, and the change from baseline to highest hemoglobin, ferritin, and TSAT anytime during the 35-day study period. Additional safety endpoints included incidence, severity, and seriousness of adverse events, and incidence of treatment-emergent abnormal clinical laboratory values in the safety population, defined as all subjects who received the study drug regardless of subsequent laboratory testing.
# The number and proportion of subjects who experienced an adverse event in the safety population was summarized and rates between the iron treatment groups using Fisher's exact test were compared for the categorical safety endpoints. Analyses were conducted using SAS version 9 (Cary, N.C.). All statistical tests were 2-tailed and p values<0.05 were considered statistically significant.
# [2] = Single-dose toxicity studies; assay type: in vivo, rodents and dogs
substance,measurement,setting,value
"polynuclear iron (III)-hydroxide 4(R)-(poly-(1→4)-O-α-glucopyranosyl)-oxy-2(R),3(S),5(R),6-tetrahydroxy-hexanoate [FCM]",subjects who experienced one or more adverse events,[1],68%
same,subjects with adverse events considered to be related to study drug,[1],32%
same,adverse event: reduced serum phosphate noted by subjects' physicians,[1]; p=0.008 between groups,32%
same,"Discontinuation from study due to adverse event, n (%)",[1]; safety population,2 (8%) n (%)
same,"Patients experiencing one or more adverse events related to study drug, n (%)",[1]; safety population,8 (32%) n (%)
same,"Patients experiencing one or more adverse events, n (%)",[1]; safety population,17 (68%) n (%)
same,"Patients experiencing one or more serious adverse events, n (%)",[1]; safety population,0 (0%) n (%)
same,"safe and tolerated single intravenous dose, as multiple of the equivalent of 1,000 mg iron once weekly in humans",[2],up to 60 times

# Reference: US20140162974A1, “METHODS FOR MODULATION OF PHOSPHORUS AND FGF23” (Luitpold Pharmaceuticals, Inc., priority 2012, published 2014)
